From US8088806B2 (Achillion Pharmaceuticals, Inc., priority 2005, dated 2012)

The molecules below were run on HCV replicon (assay: Replicon based assay of HCV replication inhibition (NPT ELISA)). Conditions: Hepatitis C virus, Huh-7, 72 h, Table III; Huh-7 HCV replicon-containing cells, three days; read-out: Activity.
Type: cell-based, Hepatitis C virus
Summary of the method: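 Huh-7 cells carrying a bicistronic HCV replicon (neo, EMCV-IRES-driven NS3–NS5B) treated overnight after seeding with usually 6 concentrations, 10 to 0.03 micromolar, for three days at 37° C without G418. Replication read as NPT level by captured ELISA; matched-DMSO wells and interferon alpha as controls.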

Structure (SMILES) | EC50 [µM]
CCCCCCCCOc1ccc(Nc2nc(-c3cccc4nsnc34)cs2)cc1C(F)(F)F [compound 664, 4-(benzo[c][1,2,5]thiadiazol-4-yl)-N-(3-(trifluoromethyl)-4-(octyloxy)phenyl)thiazol-2-amine] | < 1
CCCCCCCCOc1ccc(Nc2nc(-c3ccc4[nH]c(=O)oc(=O)c4c3)cs2)cc1C(F)(F)F [compound 665, 6-(2-(3-(trifluoromethyl)-4-(octyloxy)phenylamino)thiazol-4-yl)-1H-benzo[d][1,3]oxazine-2,4-dione] | < 1
CCCCCCCCOc1ccc(Nc2nc(-c3ccc(CCO)cc3)cs2)cc1C(F)(F)F [compound 666, 2-(4-(2-(3-(trifluoromethyl)-4-(octyloxy)phenylamino)thiazol-4-yl)phenyl)ethanol] | < 1
CCCCCCCCOc1ccc(Nc2nc(-c3ccsc3C(N)=O)cs2)cc1C(F)(F)F [compound 667, 3-(2-(3-(trifluoromethyl)-4-(octyloxy)phenylamino)thiazol-4-yl)thiophene-2-carboxamide] | < 1
CCCCCCCCOc1ccc(Nc2nc(-c3ccc(-c4csnn4)cc3)cs2)cc1C(F)(F)F [compound 668, 4-(4-(1,2,3-thiadiazol-4-yl)phenyl)-N-(3-(trifluoromethyl)-4-(octyloxy)phenyl)thiazol-2-amine] | < 1
CCCCCCCCOc1ccc(Nc2nc(-c3ccc4c(c3)SCC(=O)N4)cs2)cc1C(F)(F)F [compound 669, 7-(2-(3-(trifluoromethyl)-4-(octyloxy)phenylamino)thiazol-4-yl)-2H-benzo[b][1,4]thiazin-3(4H)-one] | < 1
CCCCCCCCOc1ccc(Nc2nc(-c3ccc(N)nn3)cs2)cc1C(F)(F)F [compound 670, 6-(2-(3-(trifluoromethyl)-4-(octyloxy)phenylamino)thiazol-4-yl)pyridazin-3-amine] | < 1
CCCCCCCCOc1ccc(Nc2nc(-c3ccsc3C#N)cs2)cc1C(F)(F)F [compound 671, 3-(2-(3-(trifluoromethyl)-4-(octyloxy)phenylamino)thiazol-4-yl)thiophene-2-carbonitrile] | < 1
CCCCCCCCOc1ccc(Nc2nc(-c3cnc(Cl)c(C(=O)OC)c3)cs2)cc1C(F)(F)F [compound 672, methyl 5-(2-(3-(trifluoromethyl)-4-(octyloxy)phenylamino)thiazol-4-yl)-2-chloropyridine-3-carboxylate] | < 1
CCCCCCCCOc1ccc(Nc2nc(-c3ccc4nccn4c3)cs2)cc1C(F)(F)F [compound 673, N-(3-(trifluoromethyl)-4-(octyloxy)phenyl)-4-(H-imidazo[1,2-a]pyridin-6-yl)thiazol-2-amine] | < 1
CCCCCCCCOc1ccc(Nc2nc(-c3cnc4ccc(C#N)cn34)cs2)cc1C(F)(F)F [compound 674, 3-(2-(3-(trifluoromethyl)-4-(octyloxy)phenylamino)thiazol-4-yl)H-imidazo[1,2-a]pyridine-6-carbonitrile] | < 1
CCCCCCC(C)Oc1ccc(Nc2nc(-c3cccnc3)cs2)cc1C(F)(F)F (centres unmarked) [compound 675, N-(3-(trifluoromethyl)-4-(octan-2-yloxy)phenyl)-4-(pyridin-3-yl)thiazol-2-amine] | < 1
CCCCCCC(C)Oc1ccc(Nc2nc(-c3ccc(NC(C)=O)nc3)cs2)cc1C(F)(F)F (centres unmarked) [compound 676, N-(5-(2-(3-(trifluoromethyl)-4-(octan-2-yloxy)phenylamino)thiazol-4-yl)pyridin-2-yl)acetamide] | < 1
CCCCCCC(C)Oc1ccc(Nc2nc(-c3ccc(N)nc3)cs2)cc1C(F)(F)F (centres unmarked) [compound 677, 5-(2-(3-(trifluoromethyl)-4-(octan-2-yloxy)phenylamino)thiazol-4-yl)pyridin-2-amine] | < 1
CCCCCCCCOc1ccc(Nc2nc(-c3ccc(NC(C)=O)nc3)cs2)cc1C(F)(F)F [compound 678, N-(5-(2-(3-(trifluoromethyl)-4-(octyloxy)phenylamino)thiazol-4-yl)pyridin-2-yl)acetamide] | < 1
CCCCCCCCOc1ccc(Nc2nc(-c3ccc(N)nc3)cs2)cc1C(F)(F)F [compound 679, 5-(2-(3-(trifluoromethyl)-4-(octyloxy)phenylamino)thiazol-4-yl)pyridin-2-amine] | < 1
CCCC(CCC)Oc1ccc(Nc2nc(-c3cccnc3)cs2)cc1C(F)(F)F [compound 680, N-(3-(trifluoromethyl)-4-(heptan-4-yloxy)phenyl)-4-(pyridin-3-yl)thiazol-2-amine] | < 1
CCCCCCCCOc1ccc(Nc2nc(-c3ncccn3)cs2)cc1C(F)(F)F [compound 681, N-(3-(trifluoromethyl)-4-(octyloxy)phenyl)-4-(pyrimidin-2-yl)thiazol-2-amine] | < 1
FC(F)(F)c1cc(Nc2nc(-c3cccnc3)cs2)ccc1OCCCc1ccccc1 [compound 682, N-(4-(3-phenylpropoxy)-3-(trifluoromethyl)phenyl)-4-(pyridin-3-yl)thiazol-2-amine] | < 1

Structure (SMILES) | EC50 [µM]
CCCCCCCCOc1cccc(Nc2nc(-c3cccnc3)cs2)c1 [compound 683, N-(3-(octyloxy)phenyl)-4-(pyridin-3-yl)thiazol-2-amine] | < 1
CCCCCCCCN(C)c1ncc(Nc2nc(-c3cccnc3)cs2)cc1C(F)(F)F [compound 684, 3-(trifluoromethyl)-N^2-methyl-N^2-octyl-N^5-(4-(pyridin-3-yl)thiazol-2-yl)pyridine-2,5-diamine] | > 10
CCCCCCCCOc1ccc(Nc2nc(-c3ccc(N)nc3)cs2)cc1 [compound 685, 5-(2-(4-(octyloxy)phenylamino)thiazol-4-yl)pyridin-2-amine] | < 1
CCCCCCCCOc1ccc(Nc2nc(-c3cnc(NC(C)=O)c(C)c3)cs2)cc1C(F)(F)F [compound 686, N-(5-(2-(3-(trifluoromethyl)-4-(octyloxy)phenylamino)thiazol-4-yl)-3-methylpyridin-2-yl)acetamide] | < 1
CCCCCCCCOc1ccc(Nc2nc(-c3cnc(N)c(C)c3)cs2)cc1C(F)(F)F [compound 687, 5-(2-(3-(trifluoromethyl)-4-(octyloxy)phenylamino)thiazol-4-yl)-3-methylpyridin-2-amine] | < 1
CCCCCCCCOc1ccc(Nc2nc(-c3cnc(NC(C)=O)c(C)c3)cs2)cc1 [compound 688, N-(5-(2-(4-(octyloxy)phenylamino)thiazol-4-yl)-3-methylpyridin-2-yl)acetamide] | 1 to 10
CCCCCCCCN(C)c1ccc(Nc2nc(-c3cnc(OC)nc3)cs2)cc1C(F)(F)F [compound 689, 2-(trifluoromethyl)-N^4-(4-(2-methoxypyrimidin-5-yl)thiazol-2-yl)-N^1-methyl-N-octylbenzene-1,4-diamine] | < 1
CC(C)=CCC/C(C)=C/COc1ccc(Nc2nc(-c3cccnc3)cs2)cc1C(F)(F)F [compound 690, N-(4-((E)-3,7-dimethylocta-2,6-dienyloxy)-3-(trifluoromethyl)phenyl)-4-(pyridin-3-yl)thiazol-2-amine] | < 1
CC(C)CCCC(C)CCOc1ccc(Nc2nc(-c3cccnc3)cs2)cc1C(F)(F)F (centres unmarked) [compound 691, N-(4-(3,7-dimethyloctyloxy)-3-(trifluoromethyl)phenyl)-4-(pyridin-3-yl)thiazol-2-amine] | < 1
CCCCCCCCSc1ccc(Nc2nc(-c3cccnc3)cs2)cc1C(F)(F)F [compound 692, N-(3-(trifluoromethyl)-4-(octylthio)phenyl)-4-(pyridin-3-yl)thiazol-2-amine] | < 1
FC(F)(F)c1cc(Nc2nc(-c3cccnc3)cs2)ccc1OCCCN1CCOCC1 [compound 693, N-(4-(3-morpholinopropoxy)-3-(trifluoromethyl)phenyl)-4-(pyridin-3-yl)thiazol-2-amine] | 1 to 10
CN1CCN(CCCOc2ccc(Nc3nc(-c4cccnc4)cs3)cc2C(F)(F)F)CC1 [compound 694, N-(4-(3-(4-methylpiperazin-1-yl)propoxy)-3-(trifluoromethyl)phenyl)-4-(pyridin-3-yl)thiazol-2-amine] | 1 to 10
CN(C)CCCOc1ccc(Nc2nc(-c3cccnc3)cs2)cc1C(F)(F)F [compound 695, N-(4-(3-(dimethylamino)propoxy)-3-(trifluoromethyl)phenyl)-4-(pyridin-3-yl)thiazol-2-amine] | 1 to 10
FC(F)(F)c1cc(Nc2nc(-c3cccnc3)cs2)ccc1OCCCN1CCCC1 [compound 696, N-(4-(3-(pyrrolidin-1-yl)propoxy)-3-(trifluoromethyl)phenyl)-4-(pyridin-3-yl)thiazol-2-amine] | 1 to 10
CCCCCCCCOC(=O)c1ccc(Nc2nc(-c3cccnc3)cs2)cc1C(F)(F)F [compound 697, octyl 4-(4-(pyridin-3-yl)thiazol-2-ylamino)-2-(trifluoromethyl)benzoate] | < 1
FC(F)(F)c1cc(Nc2nc(-c3cccnc3)cs2)ccc1N1CCC2CCCCC2C1 (centres unmarked) [compound 698, N-(3-(trifluoromethyl)-4-(octahydroisoquinolin-2(1H)-yl)phenyl)-4-(pyridin-3-yl)thiazol-2-amine] | < 1
O=C(c1ccc(Nc2nc(-c3ccc(F)cc3)cs2)cc1C(F)(F)F)N1CCC2CCCCC2C1 (centres unmarked) [compound 699, (4-(4-(4-fluorophenyl)thiazol-2-ylamino)-2-(trifluoromethyl)phenyl)(octahy-droisoquinolin-2(1H)-yl)methanone] | > 10
CCCCCCCCOC(=O)c1ccc(Nc2nc(-c3ccc(F)cc3)cs2)cc1C(F)(F)F [compound 700, octyl 4-(4-(4-fluorophenyl)thiazol-2-ylamino)-2-(trifluoromethyl)benzoate] | < 1
CCCCCCCCOc1ccc(Nc2nc(-c3ccc4ncccc4n3)cs2)cc1C(F)(F)F [compound 701, 4-(6-deuterated-1,5-naphthyndin-2-yl)-N-(4-(octyloxy)-3-(trifluoromethyl)phenyl)thiazol-2-amine] | < 1
